Source: patent publication US11352354B2, “Substituted penta-fused hexa-heterocyclic compounds, preparation method therefor, drug combination and use thereof” (Xiamen University, priority 2017, dated 2022)

Test system: MDA-MB-231 cells
Assay: Vacuolation of MDA-MB-231 cells caused by inhibition of compounds on PIKfyve (microscopy)
Format: cell-based
Settings: MDA-MB-231 cells
Source text: I. Determination of Vacuolation of MDA-MB-231 Cells Caused by Inhibition of Compounds on PIKfyve
When the activity of pikfyve kinase is inhibited, vacuoles will be produced in cytoplasm. By observing the number of vacuoles under a microscope, the ability of compounds to inhibit the activity of pikfyve kinase can be known.
1. Cell plating: cells in logarithmic growth phase were made into a single cell suspension, counted with a cell counter and diluted to a cell concentration of about 2×10^5/mL. Then, the cells were inoculated into a 12-well plate, and cultured in a 37° C., 5% CO2 incubator.
3. Vacuolation test: after 24 and 48 hours of culture, photos were taken under an […] to observe the degree of vacuolation.
(In the table, “+” represents the degree of vacuolation; more “+” indicates more obvious vacuolation; “−” represents no vacuolation)

Row | SMILES | degree of vacuolation, 1 μM, 24 h | degree of vacuolation, 1 μM, 48 h | degree of vacuolation, 10 μM, 24 h | degree of vacuolation, 10 μM, 48 h
1 | Cc1ccc(C(=O)Nc2cccc(OC(F)(F)F)c2)cc1Nc1cc(-c2cccnc2)nc2[nH]ccc12 [I-a-33] | + | ++ | + | ++
2 | Cc1ccc(NC(=O)c2ccc(CN3CCOCC3)c(C(F)(F)F)c2)cc1Nc1nc(-c2cccnc2)cn2c(Br)cnc12 [VI-b-6] | − | − | − | −
3 | Nc1ccc(NC(=O)c2cccc(Nc3nc(-c4cccnc4)c4[nH]ccc4n3)c2)cc1 [V-c-3] | + | + | ++ | ++
4 | Cc1ccc(C(=O)Nc2cccc(OC(F)(F)F)c2)cc1Nc1nc(-c2cccnc2)cn2c(Br)cnc12 [VI-b-4] | − | − | + | +
5 | O=C(Nc1cccc(C(F)(F)F)c1)c1ccc(F)c(Nc2cc(-c3cccnc3)nc3[nH]ccc23)c1 [I-a-38] | + | + | ++ | ++
6 | Cc1cn(-c2cc(NC(=O)c3ccc(C)c(Nc4nc(-c5cccnc5)nc5cc[nH]c45)c3)cc(C(F)(F)F)c2)cn1 [V-a-7] | − | − | + | +
7 | Cc1ccc(NC(=O)c2cccc(C(F)(F)F)c2)cc1Nc1nc(-c2cccnc2)cn2ccnc12 [VI-a-5] | − | + | − | +
8 | Cc1cc(NC(=O)c2ccccc2N)ccc1Nc1nc(-c2cccnc2)c2[nH]ccc2n1 [V-c-25] | − | − | − | −
9 | Cc1ccc(C(=O)Nc2cccc(C(F)(F)F)c2)cc1Nc1cc(-c2ccncc2)nc2[nH]ccc12 [I-a-21] | − | − | − | −
10 | Cc1ccc(C(=O)Nc2ccc(CN3CCN(C)CC3)c(C(F)(F)F)c2)cc1Nc1nc(-c2cccnc2)nc2c1ncn2C [IV-b-9] |  | − |  | −
11 | CN1CCN(Cc2cc(NC(=O)c3cccc(Nc4cc(-c5cccnc5)nc5[nH]ccc45)c3)cc(C(F)(F)F)c2)CC1 [I-a-26] | − | − | − | −
12 | Cc1cc(NS(=O)(=O)c2ccccc2)ccc1Nc1nc(-c2cccnc2)c2[nH]ccc2n1 [V-c-35] | − | − | + | +
13 | Cc1ccc(NC(=O)c2cccc(C(F)(F)F)c2)cc1Nc1nc(-c2ccncc2)nc2cc[nH]c12 [V-a-4] | − | − | − | −
14 | Cc1ccc(C(=O)Nc2ccc(CN3CCN(C)CC3)c(C(F)(F)F)c2)cc1Nc1nc(-c2ccncc2)cn2ccnc12 [VI-a-8] |  | − |  | −
15 | Cc1cc(NC(=O)c2ccc(C)c(Nc3cc(-c4cccnc4)nc4[nH]ccc34)c2)n(C)n1 [I-a-45] | − | + | + | +
16 | Cc1ccc(NC(=S)Nc2cccc(C(F)(F)F)c2)cc1Nc1cc(-c2cccnc2)nc2[nH]ccc12 [I-a-40] | + | + | + | +
17 | Cc1ccc(C(=O)Nc2ccc(CN3CCN(C)CC3)c(C(F)(F)F)c2)cc1Nc1nc(-c2ccncc2)nc2[nH]cnc12 [IV-a-5] | + | − | + | −
18 | Cc1ccc(C(=O)Nc2cccc(OC(F)(F)F)c2)cc1Nc1nc(-c2cccnc2)nc2c1ncn2C [IV-b-11] | + | + |  | +
19 | Cc1ccc(C(=O)Nc2ccc(CN3CCN(C)CC3)c(C(F)(F)F)c2)cc1Nc1nc(-c2cccnc2)nc2ccn(C)c12 [V-b-7] | + | + | − | −

Row | SMILES | degree of vacuolation, 1 μM, 24 h | degree of vacuolation, 1 μM, 48 h | degree of vacuolation, 10 μM, 24 h | degree of vacuolation, 10 μM, 48 h
20 | Cc1ccc(C(=O)Nc2ccc(CN3CCN(C)CC3)c(C(F)(F)F)c2)cc1Nc1cc(-c2cccnc2)nc2c1ccn2C [I-b-5] | − | − | + | +
21 | Cc1ccc(NC(=O)c2cccc(C(F)(F)F)c2)cc1Nc1nc(-c2cccnc2)nc2cc[nH]c12 [V-a-3] | ++ | ++ | + | +
22 | Cc1ccc(C(=O)Nc2cccc(OC(F)(F)F)c2)cc1Nc1nc(-c2ccncc2)nc2[nH]cnc12 [IV-a-7] | − | − | + | ++
23 | COc1ccc(Br)cc1NC(=O)Nc1cccc(-c2nc(NCc3cccnc3)c3c(ccn3C)n2)c1 [V-b-29] | + | − | − | −
24 | Cc1ccc(C(=O)Nc2ccc(CN3CCN(C)CC3)c(C(F)(F)F)c2)cc1Nc1cc(-c2cccnc2)nc2[nH]ccc12 [I-a-24] | − | − | − | −
25 | COc1cccc(NC(=O)c2ccc(C)c(Nc3cc(-c4cccnc4)nc4[nH]ccc34)c2)c1 [I-a-32] | + | ++ | + | ++
26 | Cc1ccc(C(=O)Nc2ccc(CN3CCN(C)CC3)c(C(F)(F)F)c2)cc1Nc1nc(-c2ccncc2)nc2c1ncn2C [IV-b-10] |  | − |  | −
27 | Cc1cn(-c2cc(NC(=O)c3ccc(C)c(Nc4nc(-c5ccncc5)nc5cc[nH]c45)c3)cc(C(F)(F)F)c2)cn1 [V-a-8] | + | + | ++ | ++
28 | CN1CCN(Cc2cc(NC(=O)c3cccc(Nc4cc(-c5ccncc5)nc5[nH]ccc45)c3)cc(C(F)(F)F)c2)CC1 [I-a-27] | + | − | + | −
29 | Cc1ccc(C(=O)Nc2ccc(CN3CCN(C)CC3)c(C(F)(F)F)c2)cc1Nc1nc(-c2ccncc2)nc2cc[nH]c12 [V-a-10] | ++ | ++ | − | −
30 | Cc1ccc(C(=O)Nc2cccc(Cl)c2)cc1Nc1cc(-c2cccnc2)nc2[nH]ccc12 [I-a-35] | + | ++ | + | ++
31 | O=C(Nc1cccc(C(F)(F)F)c1)c1cccc(Nc2cc(-c3cccnc3)nc3[nH]ccc23)c1 [I-a-30] | + | + | + | +
32 | Cc1ccc(NC(=O)c2cccc(C(F)(F)F)c2)cc1Nc1cc(-c2ccncc2)nc2[nH]ccc12 [I-a-10] | − | − | ++ | ++
33 | Cc1ccc(C(=O)Nc2cccc(C(F)(F)F)c2)cc1Nc1nc(-c2cccnc2)nc2ccn(C)c12 [V-b-3] | + | + | ++ | ++
34 | COc1ccc(Br)cc1NC(=S)Nc1cccc(-c2nc(NCc3cccnc3)c3c(ccn3C)n2)c1 [V-b-30] | − | − | + | +
35 | Cc1ccc(C(=O)Nc2cccc(C(F)(F)F)c2)cc1Nc1nc(-c2ccccc2)nc2c1cnn2C [III-b-2] | − | − | − | −
36 | Cc1ccc(C(=O)Nc2cc(C(F)(F)F)cc(C(F)(F)F)c2)cc1Nc1cc(-c2cccnc2)nc2[nH]ccc12 [I-a-31] | − | − | − | −
37 | O=C(Nc1cccc(C(F)(F)F)c1)c1cccc(Nc2nc(-c3cccnc3)nc3cc[nH]c23)c1 [V-a-1] | − | − | + | +
